Series [1] can be described thus: (§1) Cytotoxicity against human HepG2 cells assessed as reduction in cell growth measured after 5 days by CellTiter-Glo assay. To be noted: HepG2 cells, time 5 day. The series is classed as toxicity, cell-based. On the technique in general: In ATP-based viability assays light output follows the ATP content of the culture.
Series [2] can be described thus: (§2) Cytotoxicity against quiescent human PBMC cells assessed as reduction in cell growth measured after 5 days by CellTiter-Glo assay. The series is classed as toxicity, cell-based. The settings on record: quiescent PBMC, time 5 day.
Series [3] is described as follows: AUC(0 to 24 hrs) in African green monkey infected with SARS-CoV-2 assessed as prodrug conversion by measuring (2R,3R,4S,5R)-2-(4-aminopyrrolo[2,1-f][1,2,4]triazin-7-yl)-3,4-dihydroxy-5-(hydroxymethyl)tetrahydrofuran-2-carbonitrile at 10 mg/kg, iv qd administered for day 1 followed by 5 mg/kg administration measured after 6 days by LC-MS/MS analysis. The format is ADME, organism-based, Severe acute respiratory syndrome coronavirus 2. The settings on record: in vivo. More on the design: dose 10 mg/kg, time 6 day, route iv.

Series [4] can be described thus: Drug metabolism in human NHBE-T cells assessed as Nucleotide triphosphate metabolite formation at 10 uM measured after 48 hrs by LC-MS analysis. The format is ADME, cell-based.
Series [5] in a line: AUC(0 to 24 hrs) in rat assessed as prodrug conversion by measuring (2R,3R,4S,5R)-2-(4-aminopyrrolo[2,1-f][1,2,4]triazin-7-yl)-3,4-dihydroxy-5-(hydroxymethyl)tetrahydrofuran-2-carbonitrile at 6 mg/kg, po measured upto 24 hrs by LC-MS/MS analysis. The series is classed as ADME, organism-based. Also on record: time < 24 hrs, dose 6 mg/kg, route po. To be noted: in vivo.
Series [6] in a line: Stability of compound in human plasma assessed as half life measured upto 4 hrs by LC-MS/MS analysis. The series is classed as ADME, cell-free.
A short description of series [7]: Stability of compound in dog liver S9 fraction assessed as half life at pH 7.4 measured upto 90 mins by LC-MS/MS analysis. The series is classed as ADME, subcellular, Canis lupus familiaris.
In series [8] the test system is SARS-CoV-2. The series is described as follows: Antiviral activity against SARS-CoV-2 infected in African green monkey assessed as reduction in viral load in BALF at 120 mg/kg, po qd administered for 6 days starting from 8 hrs post infection by PFA assay. The format is functional, organism-based. To be noted: Severe acute respiratory syndrome coronavirus 2, time 6.0 day.

Series [9] is described as follows: AUC(0 to 24 hrs) in dog at […], po measured upto 24 hrs by LC-MS/MS analysis. To be noted: in vivo. The format is ADME, organism-based, Canis lupus familiaris.
The nature of series [10]: Aqueous stability of the compound assessed as compound remaining at pH 2 measured at 24 hrs by UPLC analysis. The format is physicochemical. The settings on record: aqueous solution, read-out: Stability.
The test system of series [11] is HepG2. The series is described as §1. The format is toxicity, cell-based. The settings on record: hepg2, 120 h, time 5 day.
The nature of series [12]: AUC(0 to 24 hrs) in African green monkey at 60 mg/kg, po measured upto 24 hrs by LC-MS/MS analysis. The series is classed as ADME, organism-based. More on the design: dose 60 mg/kg, time < 24 hrs, route po. To be noted: chlorocebus sabaeus, in vivo.
Series [13] in a line: Cmax in African green monkey infected with SARS-CoV-2 assessed as prodrug conversion by measuring (2R,3R,4S,5R)-2-(4-aminopyrrolo[2,1-f][1,2,4]triazin-7-yl)-3,4-dihydroxy-5-(hydroxymethyl)tetrahydrofuran-2-carbonitrile at 60 mg/kg, po qd measured after 6 days by LC-MS/MS analysis. More on the design: dose 60 mg/kg, time 6 day, route po. The series is classed as ADME, organism-based, Severe acute respiratory syndrome coronavirus 2. The settings on record: in vivo.

Series [14] can be described thus: AUC(0 to 24 hrs) in dog assessed as prodrug conversion by measuring (2R,3R,4S,5R)-2-(4-aminopyrrolo[2,1-f][1,2,4]triazin-7-yl)-3,4-dihydroxy-5-(hydroxymethyl)tetrahydrofuran-2-carbonitrile at […], po measured upto 24 hrs by LC-MS/MS analysis. The format is ADME, organism-based, Canis lupus familiaris. To be noted: in vivo.
The nature of series [15]: Half life in African green monkey assessed as prodrug conversion by measuring (2R,3R,4S,5R)-2-(4-aminopyrrolo[2,1-f][1,2,4]triazin-7-yl)-3,4-dihydroxy-5-(hydroxymethyl)tetrahydrofuran-2-carbonitrile at 86.5 mg/kg, po measured upto 24 hrs by LC-MS/MS analysis. The series is classed as ADME, organism-based. To be noted: chlorocebus sabaeus, in vivo.
Series [16] in a line: Cmax in dog assessed as prodrug conversion by measuring (2R,3R,4S,5R)-2-(4-aminopyrrolo[2,1-f][1,2,4]triazin-7-yl)-3,4-dihydroxy-5-(hydroxymethyl)tetrahydrofuran-2-carbonitrile at […], po measured upto 24 hrs by LC-MS/MS analysis. The series is classed as ADME, organism-based, Canis lupus familiaris. The settings on record: in vivo.
Series [17] is described as follows: Half life in dog assessed as prodrug conversion by measuring (2R,3R,4S,5R)-2-(4-aminopyrrolo[2,1-f][1,2,4]triazin-7-yl)-3,4-dihydroxy-5-(hydroxymethyl)tetrahydrofuran-2-carbonitrile at […], po measured upto 24 hrs by LC-MS/MS analysis. The settings on record: in vivo. The format is ADME, organism-based, Canis lupus familiaris.
Series [18] in a line: Oral bioavailability in cynomolgus monkey assessed as prodrug conversion by measuring (2R,3R,4S,5R)-2-(4-aminopyrrolo[2,1-f][1,2,4]triazin-7-yl)-3,4-dihydroxy-5-(hydroxymethyl)tetrahydrofuran-2-carbonitrile at 11.7 mg/kg measured upto 24 hrs by LC-MS/MS analysis. The format is ADME, organism-based, Macaca fascicularis. To be noted: in vivo.
The test system of series [19] is PBMC. The description is as §2. The series is classed as toxicity, cell-based. The settings on record: pbmc, 120 h, time 5 day.
For series [20], the system named is SARS-CoV-2. The series is described as follows: Antiviral activity against SARS-CoV-2 infected in African green monkey assessed as reduction in viral genomic RNA load in throat swabs at 120 mg/kg, po qd administered for 4 days starting from 8 hrs post infection by RT-qPCR analysis. The format is functional, organism-based. The settings on record: Severe acute respiratory syndrome coronavirus 2, time 4.0 day.

Series [21] deals with SARS-CoV-2. The series is described as follows: Antiviral activity against SARS-CoV-2 infected in African green monkey assessed as reduction in viral genomic RNA load in throat swabs at 60 to 120 mg/kg, po qd administered for 1 day starting from 8 hrs post infection by RT-qPCR analysis. The format is functional, organism-based. The settings on record: Severe acute respiratory syndrome coronavirus 2, dose lower 60.0 mg/kg, dose upper […]. For orientation: Real-time PCR tracks product formation cycle by cycle.

The nature of series [22]: Oral bioavailability in rat assessed as prodrug conversion by measuring (2R,3R,4S,5R)-2-(4-aminopyrrolo[2,1-f][1,2,4]triazin-7-yl)-3,4-dihydroxy-5-(hydroxymethyl)tetrahydrofuran-2-carbonitrile at 6 mg/kg measured upto 24 hrs by LC-MS/MS analysis. The series is classed as ADME, organism-based. The settings on record: in vivo.
The nature of series [23]: Oral bioavailability in African green monkey assessed as prodrug conversion by measuring (2R,3R,4S,5R)-2-(4-aminopyrrolo[2,1-f][1,2,4]triazin-7-yl)-3,4-dihydroxy-5-(hydroxymethyl)tetrahydrofuran-2-carbonitrile at 60 mg/kg measured upto 24 hrs by LC-MS/MS analysis. The series is classed as ADME, organism-based. The settings on record: chlorocebus sabaeus, in vivo.
Series [24] has as its system SARS-CoV-2. The series is described as follows: Antiviral activity against SARS-CoV-2 infected in African green monkey assessed as reduction in viral titer in terminal respiratory tissue at 60 to 120 mg/kg, po qd administered for 6 days starting from 8 hrs post infection by PFA assay. The series is classed as functional, organism-based. To be noted: Severe acute respiratory syndrome coronavirus 2, dose lower 60.0 mg/kg, dose upper […], time 6.0 day.

Series [25] in a line: Cmax in cynomolgus monkey assessed as prodrug conversion by measuring (2R,3R,4S,5R)-2-(4-aminopyrrolo[2,1-f][1,2,4]triazin-7-yl)-3,4-dihydroxy-5-(hydroxymethyl)tetrahydrofuran-2-carbonitrile at 11.7 mg/kg, po measured upto 24 hrs by LC-MS/MS analysis. The series is classed as ADME, organism-based, Macaca fascicularis. Also on record: time < 24 hrs, dose 11.7 mg/kg, route po. To be noted: in vivo.

Activity calls are given as the source filed them. The calls are words filed in the database; no cut-off is given here.

By CC50 is commonly meant the concentration at which the toxic effect on the cells reaches its halfway point. What is called AUC is the area under the concentration-time curve, a measure of exposure. `CCC(CC)COC(=O)[C@H](C)N[P@](=O)(OC[C@H]1O[C@@](C#N)(c2ccc3c(N)ncnn23)[C@H](O)[C@@H]1O)Oc1ccccc1`: the results for the half-maximal cytotoxic concentration (CC50) at 120 h in series [1] and in [2] were 11.1 µM and greater than 20 µM, respectively. In [3], the area under the curve (AUC) was found to be 7.9 µM·h.
What is called half-life is the time in which the quantity being followed falls by half. As usually defined, the Cmax is the highest concentration seen after dosing. `CC(C)C(=O)OC[C@H]1O[C@@](C#N)(c2ccc3c(N)ncnn23)[C@H](O)[C@@H]1O` [OBELDESIVIR]: the Drug metabolism entry in series [4] was “Metabolite_Detected”. Besides, the AUC in series [5] amounted to 7.57 µM·h; in series [9] it was 0.4 µM·h; in series [12], 0.03 µM·h; in [14], 202 µM·h. In series [6], the half-life worked out at 29 min. The half-life at […] in series [7] came out at 4.3 min. Also, the outcome in series [8], in [20], in series [21] and in [24] was Active. Moreover, the remaining at 24 h in series [10] is no less than 94%. In addition, the 50% cytotoxic concentration (CC50) in [11] was 71 µM; in series [19], greater than 100 µM. In addition, the Cmax was found to be 21 µM in [13], 57.8 µM in series [16] and 7.57 µM in series [25]. For the same compound, the t1/2 in [15] amounted to 179 min; in series [17], 217 min. Besides, the figures for the F in [18], in series [22] and in series [23] were 37%, 63% and 36%, respectively.

The values above are taken from ChEMBL document CHEMBL5321279 (J Med Chem, 2023).
